{
  "source": "patent US20070048371A1",
  "about": "“Pharmaceutical formulations/composition of guanfacine suitable for single dose form administration daily” (priority 2005, published 2007)",
  "key": {"[1]": {"experiment": "Example 2: open-label dose-escalation pharmacokinetic and safety study in children and adolescents with ADHD", "type": "in vivo, human", "conditions": "for Cmax: read-out: Cmax; for Tmax: read-out: Tmax; for AUC(0-t): read-out: AUC0-24", "method": "Objective: The objective of this study was to assess the pharmacokinetics of controlled-release guanfacine after a single 2 mg dose or multiple doses of 2 mg and 4 mg from Table 2.\nMethods: An open-label, dose-escalation study in male and female children (aged 6-12 years) and adolescents (aged 13-17 years) with ADHD. Subjects weighed 25 kg (55 lb) or more but were not considered overweight in the opinion of the investigator. Their electrocardiogram readings (ECGs) were within normal ranges, and their blood pressure measurements were within the 95th percentile for their age, height, and gender. […] Informed consent was given by the patient's parent or guardian.\n[…] The dose was then titrated down to 3 mg on days 30 to 32, and 2 mg on days 33 to 35. Pharmacokinetic assessments were made after the single 2 mg dose and after 6 days of repeated 2 mg and 4 mg doses."}, "[2]": {"experiment": "Example 3: Phase I single-dose crossover bioequivalence/dose proportionality study, 1 mg, 2 mg, 4 mg tablets, healthy adult volunteers", "type": "in vivo, human", "conditions": "for half-life: t1/2; for Vd/F: Vz/F", "method": "Objectives: The study was designed to assess the bioequivalence of guanfacine 2 mg and 4 mg tablets from table 2 and to investigate the dose proportionality of 1 mg, 2 mg, and 4 mg doses.\nMethods: This was a Phase I, randomized, open-label, single-dose, five period, four-treatment crossover design with a separate lead-in period.\nForty-nine (49) healthy adult volunteers completed the study. During period 1, all subjects received a single 1 mg dose administered after and overnight fast. Prior to period 2, subjects were randomly assigned to one of four sequence groups, with 13 subjects per sequence. During treatment periods 2-5, subjects received their assigned treatment of 2 mg or 4 mg. All subjects were to receive two single doses of 2 mg tablets and two single doses of 4 mg tablets during the course of the study. Doses during periods 2-5 were also administered after an overnight fast."}, "[3]": {"conditions": "both sexes, human, plasma, po, 2 mg, single 2 mg oral dose, Day 1, children 6-12 yrs, ADHD patients, N = 14"}, "[4]": {"conditions": "both sexes, human, plasma, po, 4 mg, Day 28, 4 mg once daily oral, adolescents 13-17 yrs, ADHD patients, N = 14"}, "[5]": {"conditions": "both sexes, human, plasma, po, 4 mg, Day 28, 4 mg once daily oral, children 6-12 yrs, ADHD patients, N = 14"}, "[6]": {"conditions": "single 2 mg oral dose, Day 1, adolescents 13-17 yrs, ADHD patients, N = 14"}, "[7]": {"conditions": "single 2 mg oral dose, Day 1, children 6-12 yrs, ADHD patients, N = 14"}},
  "data": [
    {"smiles": "N=C(N)NC(=O)Cc1c(Cl)cccc1Cl", "note": "[guanfacine]", "values": [
      {"measurement": "AUC(0-inf)", "setting": "[1]; both sexes, human, plasma, po, 2 mg, single 2 mg oral dose, Day 1, children 6-12 yrs, ADHD patients, N = 14, read-out: AUC0-∞", "result": "65.2 ± 23.9", "unit": "ng·h/mL"},
      {"measurement": "Cmax", "setting": "[1]; [3]", "result": "2.55 ± 1.03", "unit": "ng/mL"},
      {"measurement": "Tmax", "setting": "[1]; [3]", "result": 4.98, "unit": "h"},
      {"measurement": "Vd/F", "setting": "[1]; both sexes, human, plasma, po, 2 mg, single 2 mg oral dose, Day 1, children 6-12 yrs, ADHD patients, N = 14, read-out: Vz/F", "result": "766 ± 380", "unit": "L"},
      {"measurement": "AUC(0-t)", "setting": "[1]; [4]", "result": "117 ± 28.4", "unit": "ng·h/mL"},
      {"measurement": "Cmax", "setting": "[1]; [4]", "result": "7.01 ± 1.53", "unit": "ng/mL"},
      {"measurement": "Tmax", "setting": "[1]; [4]", "result": 4.97, "unit": "h"},
      {"measurement": "AUC(0-t)", "setting": "[1]; [5]", "result": "162 ± 116", "unit": "ng·h/mL"},
      {"measurement": "Cmax", "setting": "[1]; [5]", "result": "10.1 ± 7.09", "unit": "ng/mL"},
      {"measurement": "Tmax", "setting": "[1]; [5]", "result": 5.02, "unit": "h"},
      {"measurement": "linearity of pharmacokinetics", "setting": "[1]; single 2 mg doses and multiple 2 mg and 4 mg doses, children (6-12 years) and adolescent (13-17 years) ADHD patients", "result": "linear"},
      {"measurement": "CL/F", "setting": "[1]; [6]", "result": "815 ± 214", "unit": "mL/min"},
      {"measurement": "λz", "setting": "[1]; [6]", "result": "0.0428 ± 0.0153", "unit": "h⁻¹"},
      {"measurement": "CL/F", "setting": "[1]; [7]", "result": "612 ± 252", "unit": "mL/min"},
      {"measurement": "λz", "setting": "[1]; [7]", "result": "0.0496 ± 0.0093", "unit": "h⁻¹"},
      {"measurement": "AUC(0-t)", "setting": "[2]; human, in vivo, 1 mg, AUC0-last", "result": "~29.3", "unit": "ng·h/mL"},
      {"measurement": "AUC(0-inf)", "setting": "[2]; human, in vivo, 1 mg, AUC∞", "result": "~32.4", "unit": "ng·h/mL"},
      {"measurement": "Cmax", "setting": "[2]; human, in vivo, 1 mg, mean Cmax", "result": "~0.98", "unit": "ng/mL"},
      {"measurement": "Tmax", "setting": "[2]; human, in vivo, 1 mg, median Tmax", "result": "~6", "unit": "h"},
      {"measurement": "half-life", "setting": "[2]; human, in vivo, 1 mg", "result": "17.5 ± 3.8", "unit": "h"},
      {"measurement": "AUC(0-t)", "setting": "[2]; human, in vivo, 4 mg, AUC0-last", "result": "~120", "unit": "ng·h/mL"},
      {"measurement": "AUC(0-inf)", "setting": "[2]; human, in vivo, 4 mg, AUC∞", "result": "~125", "unit": "ng·h/mL"},
      {"measurement": "Cmax", "setting": "[2]; human, in vivo, 4 mg, mean Cmax", "result": "~3.58", "unit": "ng/mL"},
      {"measurement": "Tmax", "setting": "[2]; human, in vivo, 4 mg, median Tmax", "result": "~5", "unit": "h"},
      {"measurement": "CL/F", "setting": "[2]; human, in vivo, po, 1 mg", "result": "560 ± 194", "unit": "mL/mm"},
      {"measurement": "AUC(0-t)", "setting": "[2]; human, in vivo, po, 1 mg, AUC0-t", "result": "29.3 ± 8.84", "unit": "ng·h/mL"},
      {"measurement": "AUC(0-inf)", "setting": "[2]; human, in vivo, po, 1 mg, AUC0-∞", "result": "32.4 ± 8.78", "unit": "ng·h/mL"},
      {"measurement": "Cmax", "setting": "[2]; human, in vivo, po, 1 mg, Cmax", "result": "0.98 ± 0.26", "unit": "ng/mL"},
      {"measurement": "Vd/F", "setting": "[2]; human, in vivo, po, 1 mg", "result": "823 ± 249", "unit": "L"},
      {"measurement": "half-life", "setting": "[2]; human, in vivo, po, 1 mg", "result": "17.5 ± 3.83", "unit": "h"},
      {"measurement": "Tmax", "setting": "[2]; human, in vivo, po, 1 mg, tmax", "result": 6, "unit": "h"},
      {"measurement": "AUC0-∞", "setting": "[2]; human, in vivo, po, 2 mg", "result": "57.8 ± 19.1", "unit": "ng·h/mL"},
      {"measurement": "AUC(0-t)", "setting": "[2]; human, in vivo, po, 2 mg", "result": "54.0 ± 17.6", "unit": "ng·h/mL"},
      {"measurement": "Cmax", "setting": "[2]; human, in vivo, po, 2 mg", "result": "1.54 ± 0.53", "unit": "ng/mL"},
      {"measurement": "Vz/F", "setting": "[2]; human, in vivo, po, 2 mg", "result": "889 ± 241", "unit": "L"},
      {"measurement": "t1/2", "setting": "[2]; human, in vivo, po, 2 mg", "result": "16.7 ± 4.12", "unit": "h"},
      {"measurement": "AUC(0-t)", "setting": "[2]; human, in vivo, po, 2 mg, AUC0-t", "result": "55 ± 18", "unit": "ng·h/mL"},
      {"measurement": "AUC(0-inf)", "setting": "[2]; human, in vivo, po, 2 mg, AUC0-∞", "result": "58.1 ± 18.8", "unit": "ng·h/mL"},
      {"measurement": "Cmax", "setting": "[2]; human, in vivo, po, 2 mg, Cmax", "result": "1.59 ± 0.49", "unit": "ng/mL"},
      {"measurement": "Vd/F", "setting": "[2]; human, in vivo, po, 2 mg", "result": "894 ± 328", "unit": "L"},
      {"measurement": "half-life", "setting": "[2]; human, in vivo, po, 2 mg", "result": "16.4 ± 3.46", "unit": "h"},
      {"measurement": "Tmax", "setting": "[2]; human, in vivo, po, 2 mg, tmax", "result": 6, "unit": "h"},
      {"measurement": "AUC0-∞", "setting": "[2]; human, in vivo, po, 4 mg", "result": "123 ± 44.6", "unit": "ng·h/mL"},
      {"measurement": "AUC(0-t)", "setting": "[2]; human, in vivo, po, 4 mg", "result": "119 ± 43.4", "unit": "ng·h/mL"},
      {"measurement": "Cmax", "setting": "[2]; human, in vivo, po, 4 mg", "result": "3.59 ± 1.40", "unit": "ng/mL"},
      {"measurement": "Vz/F", "setting": "[2]; human, in vivo, po, 4 mg", "result": "866 ± 393", "unit": "L"},
      {"measurement": "t1/2", "setting": "[2]; human, in vivo, po, 4 mg", "result": "16.2 ± 4.15", "unit": "h"},
      {"measurement": "AUC(0-t)", "setting": "[2]; human, in vivo, po, 4 mg, AUC0-t", "result": "120 ± 41.5", "unit": "ng·h/mL"},
      {"measurement": "AUC(0-inf)", "setting": "[2]; human, in vivo, po, 4 mg, AUC0-∞", "result": "125 ± 46", "unit": "ng·h/mL"},
      {"measurement": "Cmax", "setting": "[2]; human, in vivo, po, 4 mg, Cmax", "result": "3.58 ± 1.39", "unit": "ng/mL"},
      {"measurement": "Vd/F", "setting": "[2]; human, in vivo, po, 4 mg", "result": "854 ± 294", "unit": "L"},
      {"measurement": "half-life", "setting": "[2]; human, in vivo, po, 4 mg", "result": "17.1 ± 5.51", "unit": "h"},
      {"measurement": "Tmax", "setting": "[2]; human, in vivo, po, 4 mg, tmax", "result": 5.01, "unit": "h"},
      {"measurement": "half-life", "setting": "[2]; human, in vivo", "result": "17.1 ± 5.5", "unit": "h"},
      {"measurement": "deaths or serious adverse events", "setting": "[2]; single 1 mg, 2 mg, 4 mg doses, healthy adults", "result": "no deaths or serious adverse events"}
    ]}
  ]
}
